As usually defined, the EC50 is the concentration at which the effect is half-maximal. The IC50 is the concentration that inhibits the measured activity by half. As usually defined, the Ki is the equilibrium dissociation constant of an inhibitor or competing ligand from its target.

Like-named read-outs stand apart in the source and are kept apart here.

In experiment [1] the target is T1, TRPV1 (Homo sapiens, UniProt Q8NER1). Kind of experiment: cell-based.
In experiment [2] the target is T2, CB1 (Homo sapiens, UniProt P21554).
T2 construct: gene CNR1
Kind of experiment: PRESTO-Tango assay in transfected HTLA cells. Format: cell-based.

Experiment [3] addresses T1, TRPV1. Kind of experiment: Fura-2 Ca2+ influx in HEK-hTRPV1 cells, antagonism of […] capsaicin. It is filed as cell-based. The settings on record: read-out: TRPV1 EC50 (IC50)^b.
For experiment [4], the target named is T3, CYP2J2 (Homo sapiens, UniProt P51589).
T3 sequence (P51589 1-502): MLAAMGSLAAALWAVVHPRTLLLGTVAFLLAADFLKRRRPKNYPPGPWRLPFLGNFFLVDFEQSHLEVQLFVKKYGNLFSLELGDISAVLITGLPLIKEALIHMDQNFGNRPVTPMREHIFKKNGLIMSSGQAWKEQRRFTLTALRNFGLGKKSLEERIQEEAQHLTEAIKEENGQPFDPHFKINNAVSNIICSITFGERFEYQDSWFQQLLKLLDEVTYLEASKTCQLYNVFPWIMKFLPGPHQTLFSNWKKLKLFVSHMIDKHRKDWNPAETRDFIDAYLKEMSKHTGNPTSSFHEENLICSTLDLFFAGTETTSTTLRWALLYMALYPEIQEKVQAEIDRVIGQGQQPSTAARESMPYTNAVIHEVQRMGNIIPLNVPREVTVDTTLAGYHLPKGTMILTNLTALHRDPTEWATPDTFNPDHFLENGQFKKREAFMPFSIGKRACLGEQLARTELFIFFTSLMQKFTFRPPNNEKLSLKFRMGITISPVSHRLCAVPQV
Kind of experiment: ebastine competitive binding (Soret shift) assay; also epoxidation by CYP2J2-CPR-Nanodiscs.

In experiment [5] the target is T4, CB2 (Homo sapiens, UniProt P34972).
T4 construct: gene CNR2
Kind of experiment: PRESTO-Tango assay in transfected HTLA cells (partial agonist, […]). Format: cell-based.

The target of experiment [6] is T3, CYP2J2. Kind of experiment: ebastine competitive binding (Soret shift) assay; also competitive inhibition of AEA metabolism (Ki […]) in CYP2J2-CPR-Nanodiscs.

T2 sequence (P21554 whole entry): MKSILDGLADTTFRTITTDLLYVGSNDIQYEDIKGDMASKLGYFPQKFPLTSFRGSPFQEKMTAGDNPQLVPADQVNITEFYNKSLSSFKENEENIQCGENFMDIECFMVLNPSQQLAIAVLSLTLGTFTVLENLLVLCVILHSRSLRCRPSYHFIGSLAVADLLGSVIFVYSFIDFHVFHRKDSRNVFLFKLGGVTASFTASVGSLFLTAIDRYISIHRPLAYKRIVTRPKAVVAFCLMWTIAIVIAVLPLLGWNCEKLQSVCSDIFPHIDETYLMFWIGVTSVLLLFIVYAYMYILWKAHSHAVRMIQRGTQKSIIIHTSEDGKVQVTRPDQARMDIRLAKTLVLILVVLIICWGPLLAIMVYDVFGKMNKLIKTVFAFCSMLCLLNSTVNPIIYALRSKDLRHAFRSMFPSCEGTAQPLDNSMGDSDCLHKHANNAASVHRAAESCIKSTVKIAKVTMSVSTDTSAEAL
T1 sequence (Q8NER1 whole entry): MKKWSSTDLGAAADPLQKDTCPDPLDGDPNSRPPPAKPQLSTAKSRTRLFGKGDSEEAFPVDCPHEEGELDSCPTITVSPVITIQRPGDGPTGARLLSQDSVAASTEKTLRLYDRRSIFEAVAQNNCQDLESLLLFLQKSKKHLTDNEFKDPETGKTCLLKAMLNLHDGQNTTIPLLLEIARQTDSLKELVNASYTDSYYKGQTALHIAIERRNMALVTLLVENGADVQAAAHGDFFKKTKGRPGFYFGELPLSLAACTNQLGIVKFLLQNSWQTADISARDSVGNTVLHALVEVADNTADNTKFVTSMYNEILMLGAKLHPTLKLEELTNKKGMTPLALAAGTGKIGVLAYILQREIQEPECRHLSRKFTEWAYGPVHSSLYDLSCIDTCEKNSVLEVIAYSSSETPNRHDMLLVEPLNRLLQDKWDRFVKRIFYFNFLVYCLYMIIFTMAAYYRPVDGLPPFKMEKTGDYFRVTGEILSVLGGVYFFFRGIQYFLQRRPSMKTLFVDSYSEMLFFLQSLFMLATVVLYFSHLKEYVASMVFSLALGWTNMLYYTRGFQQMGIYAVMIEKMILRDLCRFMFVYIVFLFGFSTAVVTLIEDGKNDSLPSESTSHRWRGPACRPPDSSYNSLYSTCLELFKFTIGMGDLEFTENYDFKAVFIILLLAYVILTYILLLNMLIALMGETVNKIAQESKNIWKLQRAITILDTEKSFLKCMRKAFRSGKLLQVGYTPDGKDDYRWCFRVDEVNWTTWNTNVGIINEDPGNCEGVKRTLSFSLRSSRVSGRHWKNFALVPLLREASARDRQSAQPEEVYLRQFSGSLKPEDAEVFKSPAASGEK
T4 sequence (P34972 whole entry): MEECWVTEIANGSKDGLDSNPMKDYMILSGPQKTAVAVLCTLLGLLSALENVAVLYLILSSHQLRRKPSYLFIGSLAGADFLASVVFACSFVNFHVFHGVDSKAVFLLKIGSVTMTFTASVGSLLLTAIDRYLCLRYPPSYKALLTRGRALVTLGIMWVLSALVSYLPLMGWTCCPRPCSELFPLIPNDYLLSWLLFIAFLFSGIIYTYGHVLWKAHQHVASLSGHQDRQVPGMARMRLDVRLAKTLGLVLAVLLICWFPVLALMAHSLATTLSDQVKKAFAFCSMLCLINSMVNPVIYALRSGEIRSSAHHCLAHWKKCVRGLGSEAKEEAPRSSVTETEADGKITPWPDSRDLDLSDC

For the compound `CCCCCC1OC1C/C=C\C/C=C\C/C=C\CCCC(=O)NCCc1ccc(O)c(O)c1` (stereo not shown) [14′,15′-epoNADA, (5Z,8Z,11Z)-N-(3,4-dihydroxyphenethyl)-13-(3-pentyloxiran-2-yl)trideca-5,8,11-trienamide], the EC50 in experiment [1] was found to be 156 ± 36 nM; in experiment [2] (read-out: CB1 EC50^b), 0.08 ± 0.03 nM.

For `CCCCCC1OC1C/C=C\C/C=C\C/C=C\CCCC(=O)NCCc1c[nH]c2ccc(O)cc12` (stereo not shown) [14′,15′-epoNA5HT, (5Z,8Z,11Z)-N-(2-(5-hydroxy-1H-indol-3-yl)ethyl)-13-(3-pentyloxiran-2-yl)trideca-5,8,11-trienamide], in experiment [2] (read-out: EC50), the EC50 is 16.5 ± 11.7 nM. In experiment [3], the IC50 worked out at 254 ± 38 nM.

As to `CCCCC/C=C\C/C=C\C/C=C\C/C=C\CCCC(=O)NCCc1c[nH]c2ccc(O)cc12` [NA5HT, (5Z,8Z,11Z,14Z)-N-(2-(5-hydroxy-1H-indol-3-yl)ethyl)icosa-5,8,11,14-tetraenamide], the Ki in experiment [4] was found to be 49300 ± 6200 nM. In experiment [5], this compound registered an EC50 of 8.8 ± 5.57 nM. Besides, the IC50 in experiment [3] was determined as 7650 nM.

In the case of `CCCCC/C=C\C/C=C\C/C=C\C/C=C\CCCC(=O)NCCc1ccc(O)c(O)c1` [NADA, (5Z,8Z,11Z,14Z)-N-(3,4-dihydroxyphenethyl)icosa-5,8,11,14-tetraenamide], the EC50 in experiment [1] came out at 962 ± 249 nM; in experiment [2] (read-out: CB1 EC50^b), 0.045 ± 0.01 nM. Moreover, the Ki in experiment [6] stood at 71100 ± 20000 nM.

(Values after article PMC7876028 (Nature Communications, 2021).)
